In US12590099B2, “Inhibitors of histone deacetylase useful for the treatment or prevention of HIV infection” (Merck Sharp & Dohme LLC, priority 2018, dated 2026):
Where two headings read alike, the source gives them in different places.

Columns and labels:
[1] = target: T1, Recombinant human HDAC3/SMRT heterodimer (Homo sapiens, UniProt O15379); assay: Human HDAC enzyme inhibitor Fluor-de-Lys assay, HDAC3/SMRT; assay type: biochemical
T1 construct: FLAG (C); made in house

KARN cells (Jurkat 2C4) = assay: cells; assay type: cell-based; conditions: Homo sapiens, Jurkat
Method in brief: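 Jurkat 2C4 (KARN) cells dosed with test compounds up to 40 μM final, 0.4% DMSO, overnight at 5% CO2; luciferase read by Steady-Glo luminescence after 10 min at room temperature. DMSO set as 0% and 2 μM SAHA as 100% induction; 4-parameter fit of percent activation.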

T1 sequence (O15379 whole entry): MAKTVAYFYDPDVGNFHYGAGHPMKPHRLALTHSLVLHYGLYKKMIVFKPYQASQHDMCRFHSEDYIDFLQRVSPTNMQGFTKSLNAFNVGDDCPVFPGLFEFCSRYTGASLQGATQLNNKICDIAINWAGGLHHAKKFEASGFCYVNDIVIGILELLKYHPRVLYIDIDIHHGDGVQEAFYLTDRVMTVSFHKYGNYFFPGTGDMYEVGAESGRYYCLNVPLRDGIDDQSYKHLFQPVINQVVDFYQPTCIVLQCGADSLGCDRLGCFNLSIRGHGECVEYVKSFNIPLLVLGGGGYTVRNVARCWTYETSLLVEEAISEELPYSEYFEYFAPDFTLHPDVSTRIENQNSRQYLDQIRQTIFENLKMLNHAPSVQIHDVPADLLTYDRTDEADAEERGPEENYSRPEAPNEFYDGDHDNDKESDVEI
T1 sequence (Q9Y618 1-899 partner limits assumed): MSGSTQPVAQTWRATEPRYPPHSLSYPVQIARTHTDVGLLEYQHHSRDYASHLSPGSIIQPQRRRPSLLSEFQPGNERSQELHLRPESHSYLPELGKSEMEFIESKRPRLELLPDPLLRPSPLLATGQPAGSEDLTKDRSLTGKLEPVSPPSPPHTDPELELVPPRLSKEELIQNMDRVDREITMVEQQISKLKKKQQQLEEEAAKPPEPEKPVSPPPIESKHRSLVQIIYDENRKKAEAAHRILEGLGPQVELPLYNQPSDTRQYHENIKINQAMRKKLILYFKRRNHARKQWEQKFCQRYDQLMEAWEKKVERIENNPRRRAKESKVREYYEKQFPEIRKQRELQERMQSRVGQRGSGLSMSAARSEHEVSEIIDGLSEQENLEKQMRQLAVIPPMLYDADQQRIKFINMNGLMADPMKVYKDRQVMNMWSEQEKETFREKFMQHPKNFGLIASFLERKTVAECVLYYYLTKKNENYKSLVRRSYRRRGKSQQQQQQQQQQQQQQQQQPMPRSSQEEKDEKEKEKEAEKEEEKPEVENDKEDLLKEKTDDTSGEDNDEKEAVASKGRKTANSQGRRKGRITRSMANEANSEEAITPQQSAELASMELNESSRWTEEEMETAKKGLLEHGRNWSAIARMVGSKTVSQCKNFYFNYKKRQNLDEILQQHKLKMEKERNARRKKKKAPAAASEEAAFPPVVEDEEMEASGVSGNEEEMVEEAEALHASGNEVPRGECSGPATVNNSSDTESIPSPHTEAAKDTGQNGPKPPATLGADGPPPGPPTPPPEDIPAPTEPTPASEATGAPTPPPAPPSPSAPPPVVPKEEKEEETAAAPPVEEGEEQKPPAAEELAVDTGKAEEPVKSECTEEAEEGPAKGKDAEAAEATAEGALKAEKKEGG

Structure (SMILES)	IC50 [1] [µM]	EC50 (KARN cells (Jurkat 2C4); read-out: Karn EC50 (nM) 0.1% NHS, 0.1% normal human serum) [nM]	EC50 (KARN cells (Jurkat 2C4); read-out: Karn EC50 (nM) 5% NHS, 5% normal human serum) [nM]	IC50 ([1]; recombinant human HDAC3/SMRT, Fluor-de-Lys assay) [µM]	EC50 (KARN cells (Jurkat 2C4); read-out: Karn EC50 (nM) 0.1% NHS, 0.1% normal human serum, luciferase induction, 100% = 2 μM SAHA) [nM]	EC50 (KARN cells (Jurkat 2C4); read-out: Karn EC50 (nM) 5% NHS, 5% normal human serum, luciferase induction, 100% = 2 μM SAHA) [nM]
CCC(=O)CCCCC[C@H](NC(=O)[C@H]1CC12CCN(C)CC2)c1ncc(-c2ccc3nc(C)ccc3c2)o1 [Compound 80]	0.00296	435	501			
CCC(=O)CCCCCC(NC(=O)C1CC12CCN(CC)CC2)c1nc(-c2ccc(F)cc2)[nH]c1-c1ccnn1C (stereo not drawn) [Compound 253]				0.0167	1870	2340
